Values quoted from earlier work, collected in patent publication US20110142834A1, “TREATMENT OF HEARING AND BALANCE IMPAIRMENTS USING COMPOUNDS HAVING ERYTHROPOIETIN ACTIVITY” (Edison Pharmaceuticals, Inc., priority 2008, published 2011).

[H]/N=C(/N)N[C@H]1[C@H](O)[C@@H](O)[C@H](O[C@@H]2O[C@@H](C)[C@](O)(C=O)[C@H]2O[C@@H]2O[C@@H](CO)[C@H](O)[C@@H](O)[C@@H]2NC)[C@@H](N/C(N)=N\[H])[C@@H]1O [streptomycin]
incidence of vestibular impairment (1 gram per day): 25%
patients displaying some vestibular impairment (2 grams daily for 60 to 120 days): ~75%
